Measured values reported in article PMC4775387 (Neurochemical research, 2015).

System: D4 receptors, ICR mouse striatum
Experiment: Antagonist effect on D-301-stimulated [35S]GTPγS binding in ICR mouse striatum
Assay type: biochemical
Details: antagonist concentrations up to 1 μM, unpublished data

SMILES: Clc1ccc(N2CCN(Cc3c[nH]c4ncccc34)CC2)cc1 [LY745870]
- effect on D-301-stimulated [35S]GTPγS binding: no significant effect
